# Data from patent US7553966B2, “Glucocorticoid mimetics, methods of making them, pharmaceutical compositions, and uses thereof” (Boehringer Ingelheim Pharmaceuticals, Inc., priority 2002, dated 2009).
# Target: T1, human glucocorticoid receptor (GR) complex (Homo sapiens, UniProt P04150)
# T1 construct: made in house; host or cells: insect expression system (baculovirus lysate)
# T1 sequence (P04150 1-777): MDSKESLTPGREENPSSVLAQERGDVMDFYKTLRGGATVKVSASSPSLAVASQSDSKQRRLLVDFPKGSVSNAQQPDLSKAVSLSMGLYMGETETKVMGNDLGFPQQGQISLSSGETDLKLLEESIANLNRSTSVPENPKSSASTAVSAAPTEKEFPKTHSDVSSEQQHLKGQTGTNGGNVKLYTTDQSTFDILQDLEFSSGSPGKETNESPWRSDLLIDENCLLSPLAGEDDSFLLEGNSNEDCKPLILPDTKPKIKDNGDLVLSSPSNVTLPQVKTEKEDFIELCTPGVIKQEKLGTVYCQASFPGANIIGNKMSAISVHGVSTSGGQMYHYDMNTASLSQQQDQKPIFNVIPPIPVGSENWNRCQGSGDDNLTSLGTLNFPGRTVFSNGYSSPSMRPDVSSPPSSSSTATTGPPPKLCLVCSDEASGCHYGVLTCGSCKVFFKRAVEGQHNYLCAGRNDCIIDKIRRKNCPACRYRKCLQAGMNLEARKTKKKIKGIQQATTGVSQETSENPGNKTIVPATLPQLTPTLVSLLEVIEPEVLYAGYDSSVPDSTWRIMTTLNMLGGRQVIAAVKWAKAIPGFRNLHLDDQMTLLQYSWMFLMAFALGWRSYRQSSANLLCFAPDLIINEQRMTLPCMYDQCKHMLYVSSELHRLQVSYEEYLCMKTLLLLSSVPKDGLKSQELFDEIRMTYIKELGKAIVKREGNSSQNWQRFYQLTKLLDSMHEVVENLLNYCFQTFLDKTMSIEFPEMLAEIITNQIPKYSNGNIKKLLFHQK
# Experiment: Glucocorticoid Receptor Competitive Binding Assay (fluorescence polarization, TAMRA-labeled dexamethasone probe)
# Conditions: qualitative statement; competition with TAMRA-labeled dexamethasone
# Description: Compounds of the invention were evaluated for binding to the steroid receptor by a fluorescence polarization competitive binding assay.
# A. Glucocorticoid Receptor Competitive Binding Assay
# Step 1. Characterization of the Fluorescent Probe
# The wavelengths for maximum excitation and emission of the fluorescent probe should first be measured. An example of such a probe is rhodamine (TAMRA)-labeled dexamethasone.
# The affinity of the probe for the steroid receptor was then determined in a titration experiment. The fluorescence polarization value of the probe in assay buffer was measured on an SLM-8100 fluorometer using the excitation and emission maximum values described above. Aliquots of expression vector lysate were added and fluorescence polarization was measured after each addition until no further change in polarization value was observed. Non-linear least squares regression analysis was used to calculate the dissociation constant of the probe from the polarization values obtained for lysate binding to the probe.
# Step 2. Screening for Inhibitors of Probe Binding
# This assay uses fluorescence polarization (FP) to quantitate the ability of test compounds to compete with tetramethyl rhodamine (TAMRA)-labeled dexamethasone for binding to a human glucocorticoid receptor (GR) complex prepared from an insect expression system. The assay buffer was: 10 mM TES, 50 mM KCl, 20 mM Na2MoO4. 2H2O, 1.5 mM EDTA, 0.04% w/v CHAPS, 10% v/v glycerol, 1 mM dithiothreitol, pH 7.4. Test compounds were dissolved to 1 mM in neat DMSO and then further diluted to 10× assay concentration in assay buffer supplemented with 10% v/v DMSO. Test compounds were serially diluted at 10× assay concentrations in 10% DMSO-containing buffer in 96-well polypropylene plates. […] Positive controls were reaction mixtures containing no test compound; negative controls (blanks) were reaction mixtures containing 0.7 μM to 2 μM dexamethasone. […] IC50 values were determined by iterative non-linear curve fitting of the FP signal data to a 4-parameter logistic equation.
row,Compound,activity in the GR binding assay
1,"CC(C)(CC(O)(Cc1cc2cc(C#N)ccc2[nH]1)C(F)(F)F)c1cccc2c1OCC2 (stereo not drawn) [2-[4-(2,3-Dihydrobenzofuran-7-yl)-2-hydroxy-4-methyl-2-trifluoromethylpentyl]-1H-indole-5-carbonitrile]",potent activity
2,CC(C)(CC(O)(Cc1[nH]c2ccccc2c1C#N)C(F)(F)F)c1cccc(F)c1 (stereo not drawn) [2-[4-(3-Fluorophenyl)-2-hydroxy-4-methyl-2-trifluoromethylpentyl]-1H-indole-3-carbonitrile],potent activity
3,CC(C)(CC(O)(Cc1cc2cc(C#N)ccc2[nH]1)C(F)(F)F)c1cccc(F)c1 (stereo not drawn) [2-[4-(3-Fluorophenyl)-2-hydroxy-4-methyl-2-trifluoromethylpentyl]-1H-indole-5-carbonitrile],potent activity
4,COC(=O)c1ccc2[nH]c(CC(O)(CC(C)(C)c3ccc(F)cc3OC)C(F)(F)F)cc2c1 (stereo not drawn) [2-[4-(4-Fluoro-2-methoxyphenyl)-2-hydroxy-4-methyl-2-trifluoromethylpentyl]-1H-indole-5-carboxylic acid methyl ester],potent activity
5,CC(C)(CC(O)(Cc1[nH]c2ccccc2c1C#N)C(F)(F)F)c1ccc(F)cc1 (stereo not drawn) [2-[4-(4-Fluorophenyl)-2-hydroxy-4-methyl-2-trifluoromethylpentyl]-1H-indole-3-carbonitrile],potent activity
6,COC(=O)c1ccc2[nH]c(CC(O)(CC(C)(C)c3cc(Br)ccc3OC)C(F)(F)F)cc2c1 (stereo not drawn) [2-[4-(5-Bromo-2-methoxyphenyl)-2-hydroxy-4-methyl-2-trifluoromethylpentyl]-1H-indole-5-carboxylic acid methyl ester],potent activity
7,COc1ccc(Br)cc1C(C)(C)CC(O)(Cc1cc2c(C)cc(C#N)cc2[nH]1)C(F)(F)F (stereo not drawn) [2-[4-(5-Bromo-2-methoxyphenyl)-2-hydroxy-4-methyl-2-trifluoromethylpentyl]-4-methyl-1H-indole-6-carbonitrile],potent activity
8,COC(=O)c1ccc2[nH]c(CC(O)(CC(C)(C)c3cc(F)ccc3OC)C(F)(F)F)cc2c1 (stereo not drawn) [2-[4-(5-Fluoro-2-methoxyphenyl)-2-hydroxy-4-methyl-2-trifluoromethylpentyl]-1H-indole-5-carboxylic acid methyl ester],potent activity
9,"CC(C)(CC(O)(Cc1ccnc2ccccc12)C(F)(F)F)c1cccc(O)c1 (stereo not drawn) [3-(4,4,4-Trifluoro-3-hydroxy-1,1-dimethyl-3-quinolin-4-ylmethylbutyl)phenol]",potent activity
10,"CC(C)(CC(O)(Cc1cc2ccccc2[nH]1)C(F)(F)F)c1cccc(O)c1 (stereo not drawn) [3-[4,4,4-Trifluoro-3-hydroxy-3-(1H-indol-2-ylmethyl)-1,1-dimethylbutyl]phenol]",potent activity
11,"CC(C)(CC(O)(Cc1cc2ccccc2[nH]1)C(F)(F)F)c1ccc2c(c1)CCO2 (stereo not drawn) [4-(2,3-Dihydrobenzofuran-5-yl)-1,1,1-trifluoro-2-(1H-indol-2-ylmethyl)-4-methylpentan-2-ol]",potent activity
12,"CC(C)(CC(O)(Cc1ccnc2ccccc12)C(F)(F)F)c1ccc2c(c1)CCO2 (stereo not drawn) [4-(2,3-Dihydrobenzofuran-5-yl)-1,1,1-trifluoro-4-methyl-2-quinolin-4-ylmethylpentan-2-ol]",potent activity
13,"CC(C)(CC(O)(Cc1cc2cccc(F)c2[nH]1)C(F)(F)F)c1cccc2c1OCC2 (stereo not drawn) [4-(2,3-Dihydrobenzofuran-7-yl)-1,1,1-trifluoro-2-(7-fluoro-1H-indol-2-ylmethyl)4-methylpentan-2-ol]",potent activity
14,"CC(C)(CC(O)(Cc1cc2ccccc2[nH]1)C(F)(F)F)c1cc(C#N)cc2c1OCC2 (stereo not drawn) [4-(2,3-dihydro-5-cyanobenzofuran-7-yl)-1,1,1-trifluoro-2-(1H-indol-2-ylmethyl)-4-methylpentan-2-ol]",potent activity
15,"Cc1cccc(C)c1C(C)(C)CC(O)(Cc1ccnc2ccccc12)C(F)(F)F (stereo not drawn) [4-(2,6-Dimethylphenyl)-1,1,1-trifluoro-4-methyl-2-quinolin-4-ylmethylpentan-2-ol]",potent activity
16,"CCc1cccc(C(C)(C)CC(O)(Cc2ccnc3ccccc23)C(F)(F)F)c1OC (stereo not drawn) [4-(3-Ethyl-2-methoxyphenyl)-1,1,1-trifluoro-4-methyl-2-quinolin-4-ylmethylpentan-2-ol]",potent activity
17,COc1ccc(F)cc1C(C)(C)CC(O)(CF)Cc1cc2ccccc2[nH]1 (stereo not drawn) [4-(5-Fluoro-2-methoxyphenyl)-2-fluoromethyl-1-(1H-indol-2-yl)-4-methylpentan-2-ol],potent activity
18,"CC(C)(CC(O)(Cc1ccnc2ccccc12)C(F)(F)F)c1cc(Br)cc2c1OCCC2 (stereo not drawn) [4-(6-Bromochroman-8-yl)-1,1,1-trifluoro-4-methyl-2-quinolin-4-ylmethylpentan-2-ol]",potent activity
19,"CC(C)(CC(O)(Cc1ccnc2ccccc12)C(F)(F)F)c1cccc2c1OCCC2 (stereo not drawn) [4-Chroman-8-yl-1,1,1-trifluoro-4-methyl-2-quinolin-4-ylmethylpentan-2-ol]",potent activity
20,"CC(C)(CC(O)(Cc1cc2cccc(F)c2[nH]1)C(F)(F)F)c1cc(F)ccc1O (stereo not drawn) [4-Fluoro-2-[4,4,4-trifluoro-3-(7-fluoro-1H-indol-2-ylmethyl)-3-hydroxy-1,1-dimethylbutyl]phenol]",potent activity
21,"Cc1c(CC(O)(CC(C)(C)c2cc(F)ccc2O)C(F)(F)F)[nH]c2cnccc12 (stereo not drawn) [4-Fluoro-2-[4,4,4-trifluoro-3-hydroxy-1,1-dimethyl-3-(3-methyl-1H-pyrrolo[2,3-c]pyridin-2-ylmethyl)butyl]phenol]",potent activity
22,"CC(C)(CC(O)(Cc1cc2ccccc2[nH]1)C(F)(F)F)c1ccc(O)cc1 (stereo not drawn) [4-[4,4,4-Trifluoro-3-hydroxy-3-(1H-indol-2-ylmethyl)-1,1-dimethylbutyl]phenol]",potent activity
23,"COc1ccc(F)cc1C(C)(C)CC(O)(Cc1nc2ccccc2[nH]1)C(C)(C)C (stereo not drawn) [5-(5-Fluoro-2-methoxyphenyl)-3-(benzimidazol-2-ylmethyl)-2,2,5-trimethylhexan-3-ol]",potent activity
24,"COc1ccc(F)cc1C(C)(C)CC(O)(Cc1cc2ccccc2[nH]1)C(C)C (stereo not drawn) [5-(5-Fluoro-2-methoxyphenyl)-3-(indol-2-ylmethyl)-2,5-dimethylhexan-3-ol]",potent activity
25,CCC(O)(Cc1cc2ccccc2[nH]1)CC(C)(C)c1cc(F)ccc1OC (stereo not drawn) [5-(5-Fluoro-2-methoxyphenyl)-3-(indol-2-ylmethyl)-5-methylhexan-3-ol],potent activity
26,"CC(C)(CC(O)(Cc1cc2cccc(F)c2[nH]1)C(F)(F)F)c1ccc(F)cc1O (stereo not drawn) [5-Fluoro-2-[4,4,4-trifluoro-3-(7-fluoro-1H-indol-2-ylmethyl)-3-hydroxy-1,1-dimethylbutyl]phenol]",potent activity
27,"CC(C)(CC(O)(Cc1cc2cnccc2[nH]1)C(F)(F)F)c1ccc(F)cc1O (stereo not drawn) [5-Fluoro-2-[4,4,4-trifluoro-3-hydroxy-1,1-dimethyl-3-(1H-pyrrolo[3,2-c]pyridin-2-ylmethyl)butyl]phenol]",potent activity
